# Assay results taken from patent publication US20100222289A1, “METHODS FOR DIAGNOSIS AND TREATMENT OF CHRONIC FATIGUE SYNDROME” (CFS Research LLC, priority 2007, published 2010).
# Columns and labels:
# HCMV [1] = settings: cited from earlier work
# HCMV-EBV subset CFS = assay: Example 1: subset directed antiviral therapy of HCMV-EBV CFS patients; assay type: in vivo, human; settings: for clinical outcome: 10 CFS patients, treated according to subset for mean 2.6±0.4 years; for side effects: mean 2.6±0.4 years treatment
# Protocol: Ten patients with chronic fatigue syndrome (CFS) of 1.3-2.6 years duration had elevated serum antibody titers to cytomegalovirus (HCMV), and 9 of these patients also had elevated serum antibody titers to Epstein-Barr virus (EBV). They were classified: HCMV-EBV subset (nine patients) and HCMV subset (one patient) CFS. We determined whether subset classification is required for successful antiviral therapy of CFS.
# CFS patients with elevated serum antibody titers to HCMV and EBV were treated with valganciclovir (HCMV) and valacyclovir (EBV) according to subset classification for a mean of 2.6±0.4 years. […] Five patients continue no antiviral drug, and five patients require continuing antiviral suppressive therapy. […] Subset directed antiviral therapy leads to sustained recovery in CFS patients.
# [2] = cited from earlier work
# HHV6 [3] = settings: cited from earlier work
# [4] = parameters: species or system human; settings: in vivo
# Protocol: Toxicity of Antiviral Nucleosides Patients were seen every 4 to 6 weeks, EIPS was recorded and complete blood count, aminotransferases, creatinine and urinalyses were done. Also recorded were abnormalities in white blood cells and platelet counts, aminotransferases, weight gain or loss, whether famciclovir was substituted for valacyclovir, dosage change for valganciclovir, valacyclovir, or famciclovir, and whether any of the following occurred: participation in blinded-placebo-controlled study, hospitalization, surgery, recovery, a cessation of medicines by patient choice, cessation of medicines by physician choice, relapse with worsening EIPS and returned for care.
# [5] = test system: Group A herpesvirus CFS (EBV, HCMV, HHV6); assay: Example 4: Energy Index Point Score (EIPS) in Group A herpesvirus CFS patients on antiviral nucleosides; assay type: in vivo, human
# Text: Background and Patient Population The international criteria for diagnosis of CFS was used. With strict confidentiality clinical files of CFS patients were identified by number only. A blinded code was maintained. Data were entered to the Axel computer system and analyzed anonymously. Patients with active EBV infection were identified by the presence of elevated serum ELISA antibodies to Epstein-Barr virus (EBV) IgM viral capsid antigen p18 peptide (Diasorin Inc., Stillwater, Minn.) and/or EBV, Early antigen (diffuse) 47 KD recombinant peptide (Diasorin, Stillwater, Minn.). Patients with active HCMV infection were identified by the presence of HCMV strain AD69 human fibroblast lysate, IgM and IgG ELISA and Copalis light-scatter, HCMV IgM p52 recombinant protein, UL44 and HCMV CM2, UL44 and part UL57 recombinant protein. Elevated IgM and IgG Human Herpesvirus 6 serum antibody titers ≧160 (LabCorp, Dublin, Ohio) were recorded. CFS patients had 24-Hr ECG Holter monitor recordings. When abnormal resting standard ECG and abnormal recurrent oscillating T-waves (flat, inverted) were present at baseline, radionuclide ventriculography by bicycle protocol stress studies were performed. The CFS patients reported here are termed Group A. They had negative IgM, IgG serum antibody titers to Borrelia burgdorferi, Western blot and ELISA; anti-streptolysin 0 titers <200 units; and negative serum IgM and IgG antibody titers to both Ehrlichia chaffeensis and Babesia microti (LabCorp).
# Measurement of Degree of Fatigue (Physical Capacity) The Energy Index Point Score (EIPS) is a reliable validated metric assessing the degree of illness of CFS patients. With an EIPS scoring scale for reference on the wall in each examining room, the EIPS was determined by consensus of physician and patient. An EIPS of “0” is a bedridden patient. Patients were seen every 4-6 weeks and EIPS recorded. If an intercurrent illness was present EIPS determinations were delayed for 2 weeks. An EIPS of between 0 and 5 is associated with the presence of CFS. At an EIPS of between 6 and 10, the patient no longer meets criteria for diagnosis of CFS. A change in EIPS of 0.25 is small, a 0.5 change in EIPS is a medium change, and an EIPS change of ≧0.8 is a large effect size (p<0.05).
# Valacyclovir and Famciclovir Administration to CFS patients with EBV infection Valacyclovir and famciclovir are pro-drugs well absorbed orally and, after reaching the circulation as acyclovir or penciclovir, respectively, inhibit EBV thymidine kinase efficiently. […]. Here, valacyclovir was the agent of first choice, but when diarrheas to valacyclovir developed, famciclovir was substituted. […]. If the patient weighed over 79.5 Kg, 1500 mg valacyclovir was given at each dose. Valacyclovir is excreted by the kidney by both glomerular filtration and tubular secretion. Valacyclovir renal calculi may result, and patients were advised to drink at least 1500 ml water daily. […]. Valacyclovir, once absorbed orally, is acyclovir in serum.
# CFS patients were given valganciclovir. Cautiously beginning, 450 mg daily was administered every morning after a meal for three days, and then increasing dosage to two doses of 450 mg, every morning for three days. They were then given two doses of 450 mg valganciclovir every morning followed by one 12 hours later as a continuing dosage. […] If the patient weighed over 90.0 Kg, 900 mg valganciclovir every 12 hours was given. Dosage was evaluated every 2-6 weeks for ongoing tolerance with normal values of hemograms, platelets and amino transferases and creatinines.
# EBV CFS subset = assay: Example 3: valacyclovir in EBV subset CFS, placebo-controlled trial and 36 month follow-up; assay type: in vivo, human
# Protocol: We used subset classification of Epstein-Barr virus (EBV) in chronic fatigue (CFS). We (1) performed (Group 1) a blinded-random placebo-controlled trial of valacyclovir in EBV CFS subset, and (2) followed (Group 2) this EBV subset for thirty-six months. Patients were given valacyclovir 14.3 mg per kg every 6 hours. The validated Energy Index point score (EI) assessing physical functional capacity, Holter monitor, multigated (radionuclide) MUGA rest/stress ventriculographic examination, EBV serum IgM viral capsid antibodies (VCA), and EBV Early Antigen diffuse, (EA) were evaluated.
# EBV [6] = settings: cited from earlier work
# HCMV [7] = settings: versus HCMV; read-out: 50% inhibitory concentration; cited from earlier work
# HHV6 [8] = settings: cited from earlier work; remark: listed apart in the source
# HCMV [9] = settings: cited from earlier work; remark: listed apart in the source
# EBV [10] = assay: simultaneous tests, activity versus EBV compared to HCMV; assay type: cell-based, Epstein-Barr virus
# Text: Therefore, valganciclovir was employed in CFS associated with HCMV or HHV6. Valganciclovir is efficiently absorbed as ganciclovir. It […] to human bone marrow progenitor cells and lymphocyte blastogenesis at this dosage. […] Food increases the bioavailability of both valacyclovir and valganciclovir.
# [11] = test system: human bone marrow progenitor cells and lymphocyte blastogenesis; settings: at this dosage; cited from earlier work
# [12] = high dose repetitive human studies; cited from earlier work
# [13] = 1 gm doses every 6 hours, 70 kg patients
# [14] = EBV single-virus subset (31 pts)
# [15] = Group 2, thirty-six month follow-up
compound,measurement,setting,value
CC(C)[C@H](N)C(=O)OCCOCn1cnc2c(=O)[nH]c(N)nc21 [valacyclovir],effective therapeutic agent for HCMV,HCMV [1],not an effective therapeutic antiviral agent
same,clinical outcome,HCMV-EBV subset CFS,returned to health and remain well
same,side effects,HCMV-EBV subset CFS,No significant side effects
same,peak acyclovir levels,[2]; [13],7.9 to 21 µg/mL
same,time of peak acyclovir levels,[2]; [13],90 to 120 min
same,effective therapeutic agent for HHV6,HHV6 [3],not an effective therapeutic antiviral agent
same,toxicity,[4],no toxicity
same,EIPS Change,[5]; [14],+2
same,increase in energy expenditure corresponding to EI change,"EBV CFS subset; Group 1, after six months",122 kcal/day
same,increase in mean least square EI Point Score,"EBV CFS subset; Group 1, after six months, 14.3 mg per kg every 6 hours",+1.12 units
same,EI Point Scores,EBV CFS subset; [15],increased progressively
same,abnormal cardiac wall motion,EBV CFS subset; [15],improved
same,serum antibody titers to EBV VCA IgM,EBV CFS subset; [15],decreased
same,sinus tachycardias,EBV CFS subset; [15],decreased
same,minimum inhibitor concentration (MIC),EBV [6],1.5 to 3.0 µg/mL
Nc1nc(O)c2ncn(COC(CO)CO)c2n1 [ganciclovir],IC50,HCMV [7],530 ± 40 nM
CC(=O)OCC(CCn1cnc2cnc(N)nc21)COC(C)=O [famciclovir],effective therapeutic agent for HCMV,HCMV [1],not effective therapeutic agents
same,effective therapeutic agent for HHV6,HHV6 [3],not effective therapeutic agents
same,toxicity,[4],no toxicity
same,EIPS Change,[5]; [14],+2
CC(C)[C@H](N)C(=O)OCC(CO)OCn1cnc2c(=O)nc(N)[nH]c21 (some centres unmarked) [valganciclovir],MIC,HHV6 [8],0.15 to 0.3 µg/mL
same,effective therapeutic agent for HCMV,HCMV [1],not effective therapeutic agents
same,clinical outcome,HCMV-EBV subset CFS,returned to health and remain well
same,side effects,HCMV-EBV subset CFS,No significant side effects
same,average peak concentrations (Cmax),[2]; after 0.5-1.0 gm doses,6100 ng/mL
same,effective therapeutic agent for HHV6,HHV6 [3],not effective therapeutic agents
same,MIC,HCMV [9],0.15 to 0.3 µg/mL
same,aminotransferases,[4],increases in aminotransferases were observed
same,changes in hemoglobin or platelet levels,[4],no changes
same,activity versus EBV as compared to HCMV,EBV [10],one-tenth as active
same,EIPS Change,[5]; EBV/HCMV subset (38 pts),+1.8
same,EIPS Change,[5]; EBV/HHV6 subset (14 pts),+2.0
same,EIPS Change,[5]; HCMV single-virus subset (15 pts),+1.5
same,EIPS Change,[5]; HCMV/HHV6 subset (7 pts),+1.7
same,EIPS Change,[5]; HHV6 single-virus subset (2 pts),+2.7
same,effect on human bone marrow progenitor cells and lymphocyte blastogenesis,[11],inhibitory
"CC(C)Nc1nc2cc(Cl)c(Cl)cc2n1[C@H]1O[C@@H](CO)[C@H](O)[C@@H]1O [maribavir, 1H-β-L-ribofuranoside-2-isopropylamino-5,6-dichlorobenzimidazole]",side effects,[12],changes in taste and headache
same,IC50,HCMV [7],120 ± 10 nM
